Tests used:
Experiment in all cases: relative viability (nuclei count vs DMSO), 5 days (fraction); higher = more cells survive
[1] = compound: COc1cc2/c(=N/c3ccc(Br)cc3F)nc[nH]c2cc1OCC1CCN(C)CC1 [Vandetanib] + Cc1cc(Nc2cc(N3CCN(C)CC3)nc(Sc3ccc(NC(=O)C4CC4)cc3)n2)n[nH]1 [Tozasertib] (partner 0.1 µM)
Summary of the method: (§1)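 Lung cancer cell lines in 1536-well plates got either a single drug or a fixed anchor-drug dose together with five library-drug doses (not always all listed) in √10 steps, by pin tool, on the day after seeding. Nuclei were counted after 5 days, and relative viability is the treated-to-vehicle ratio of nuclei counts. Values are medians of duplicate plates.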

[2] = compound: COc1cc(N2CCC(N3CCN(C)CC3)CC2)ccc1Nc1ncc(Cl)c(Nc2ccccc2S(=O)(=O)C(C)C)n1 [NVP-TAE684] + CS(=O)(=O)N1CCN(Cc2cc3nc(-c4cccc5[nH]ncc45)nc(N4CCOCC4)c3s2)CC1 [Pictilisib] (partner 1 µM)
Summary of the method: as §1

[3] = compound: C#Cc1cccc(Nc2ncnc3cc(OC)c(OCCCCCCC(=O)NO)cc23)c1 [CUDC-101] + Nc1ncn([C@H]2C[C@H](O)[C@@H](CO)O2)c(=O)n1 [Decitabine] (partner 2 µM)
Summary of the method: as §1

[4] = compound: C#Cc1cccc(Nc2ncnc3cc(OC)c(OCCCCCCC(=O)NO)cc23)c1 [CUDC-101] + N=C(N)NC(=N)NCCc1ccccc1 [Phenformin] (partner 250 µM)
Summary of the method: as §1

Row | Cell Line | relative viability ([1]; first compound 0.02 µM) | relative viability ([1]; first compound 0.06325 µM) | relative viability ([1]; first compound 0.2 µM) | relative viability ([1]; first compound 0.6325 µM) | relative viability ([1]; first compound 2 µM) | relative viability ([2]; first compound 0.2 µM) | relative viability ([2]; first compound 0.6325 µM) | relative viability ([2]; first compound 2 µM) | relative viability ([3]; first compound 0.01 µM) | relative viability ([3]; first compound 0.03162 µM) | relative viability ([3]; first compound 0.1 µM) | relative viability ([3]; first compound 0.3162 µM) | relative viability ([3]; first compound 1 µM) | relative viability ([4]; first compound 0.01 µM) | relative viability ([4]; first compound 0.03162 µM) | relative viability ([4]; first compound 0.1 µM) | relative viability ([4]; first compound 0.3162 µM) | relative viability ([4]; first compound 1 µM)
1 | NCI-H1666 | 0.606 | 0.581 | 0.387 | 0.577 | 0.633 | 0.31 | 0.348 | 0.274 | 0.769 | 0.734 | 0.693 | 0.752 | 0.61 | 0.601 | 0.535 | 0.574 | 0.575 | 0.552
2 | NCI-H1792 | – | – | – | – | – | 0.227 | 0.256 | 0.232 | 0.561 | 0.437 | 0.602 | 0.553 | 0.424 | 0.323 | 0.332 | – | 0.145 | 0.277
3 | IA-LM | – | – | – | – | – | 0.253 | 0.176 | 0.202 | – | – | – | – | – | – | – | – | – | –
4 | NCI-H2342 | 0.592 | 0.552 | 0.463 | 0.461 | 0.493 | – | – | – | 0.737 | 0.718 | 0.739 | 0.777 | 0.709 | 0.619 | 0.621 | 0.667 | 0.643 | 0.43
5 | NCI-H522 | 0.588 | 0.57 | 0.593 | 0.621 | 0.597 | – | – | – | 0.58 | 0.622 | 0.761 | 0.616 | 0.677 | 0.677 | 0.688 | 0.777 | 0.744 | 0.572
6 | Calu-6 | – | – | – | – | – | 0.954 | 0.741 | 0.444 | – | – | – | – | – | – | – | – | – | –
7 | NCI-H2228 | 0.263 | 0.304 | 0.124 | 0.219 | 0.214 | 0.281 | 0.167 | 0.223 | – | – | – | – | – | 0.27 | 0.272 | 0.29 | 0.403 | 0.254
8 | NCI-H1703 | – | – | – | – | – | 0.225 | 0.243 | 0.172 | – | – | – | – | – | – | – | – | – | –
9 | CAL-12T | 0.346 | 0.314 | 0.148 | 0.249 | 0.278 | 0.36 | 0.245 | 0.305 | – | – | – | – | – | 0.67 | 0.563 | 0.617 | 0.616 | 0.513
10 | NCI-H1623 | 0.431 | 0.4 | 0.388 | 0.41 | 0.445 | – | – | – | – | – | – | – | – | 0.565 | 0.597 | 0.539 | 0.631 | 0.457
11 | NCI-H1563 | – | – | – | – | – | 0.597 | 0.63 | 0.495 | – | – | – | – | – | 0.664 | 0.643 | 0.745 | 0.613 | 0.659
12 | EBC-1 | – | – | – | – | – | 0.364 | 0.348 | 0.212 | – | – | – | – | – | – | – | – | – | –
13 | NCI-H1648 | 0.515 | 0.492 | 0.569 | 0.657 | 0.318 | – | – | – | 0.548 | 0.519 | 0.439 | 0.451 | 0.324 | – | – | – | – | –

Reference: the supplement of paper PMC10307832
